Measurements reported in patent publication US6825166B2 (priority 2001, dated 2004).

How the values were obtained:
Format in all cases: cell-based
[1] = test system: Lu-1 (human lung cancer cell lines); assay: Cytotoxicity (sulforhodamine B growth assay), Protocol A, Lu cells; details: 62.5-250 μg/ml added on day of plating, replenished every 3 days
Experimental: (§1) The cell lines selected were KB (human epidermoid carcinoma in the mouth, ATCC #CCL-17), Lu-1 (human lung cancer cell lines, obtained from the Department of Surgical Oncology, University of Illinois, College of Medicine), and hTERT (telomerase-immortalized normal epithelial cell line, Clontech #C4000-1). Various doses of the compounds were evaluated under two treatment protocols. In Protocol A, cultures of each of the KB, Lu and hTERT cells were treated with various doses of the three conjugate compounds from the day of culture onward. In Protocol B, cultures of each of the KB, Lu and hTERT cells were grown to confluence (9 days), and then treated with various doses of the Transferrin-7-paclitaxel conjugate for the duration of the experiment.
(§2) KB was cultured in DMEM (GIBCO) supplemented with 10% fetal bovine serum (FBS), 100 units/ml penicillin G, 100 μg/ml streptomycin sulfate, 0.25 μg/ml amphotericin B (Fungizone) (PSF) (GIBCO) and 1% non-essential amino acids (NAA) (Sigma). Lu was maintained in MEME (GIBCO) supplemented with 10% FBS, PSF, and 1% NAA. hTERT-RPE1 was maintained in DMEM/F-12 (GIBCO) supplemented with 10% FBS+PSF. All cell lines were cultured at 37° C. in 100% humidity with a 5% CO2 atmosphere in air.
(§3) The overall procedures were those as described by Skehan et al., New calorimetric cytotoxicity assay for anticancer-drug screening, J. Natl. Cancer Inst. 82:1107-1112, 1990, and Likhitwitayawuid et al., Cytotoxic and antimalarial bisbenzylisoquinoline alkaloids from Stephania erecta. J. Nat. Prod. 56:30-38, 1993. Cells were typically grown to 60-70% confluence, the medium was changed, and the cells were used for test procedures one day later. Test samples were initially dissolved in sterilized PBS. Serial dilutions were performed using PBS as the solvent, and 10 μl were added to the three wells. PBS (10 μl) was added to control groups. […] The plates were placed on a shaker for 5 minutes, and the absorption was determined at 515 nm using an ELISA plate reader. […]

[2] = test system: hTERT (telomerase-immortalized normal epithelial cell line); assay: Cytotoxicity (sulforhodamine B growth assay), Protocol A, hTERT cells; details: 62.5-250 μg/ml added on day of plating, replenished every 3 days
Experimental: as §1, §2, §3

[3] = test system: KB (human epidermoid carcinoma in the mouth); assay: Cytotoxicity (sulforhodamine B growth assay), Protocol A, KB cells; details: for effect on cell growth (optical density versus time): 62.5-250 μg/ml added on day of plating, replenished every 3 days
Experimental: as §1, §2
(§4) The overall procedures were those as described by Skehan et al., New calorimetric cytotoxicity assay for anticancer-drug screening, J. Natl. Cancer Inst. 82:1107-1112, 1990, and Likhitwitayawuid et al., Cytotoxic and antimalarial bisbenzylisoquinoline alkaloids from Stephania erecta. J. Nat. Prod. 56:30-38, 1993. Cells were typically grown to 60-70% confluence, the medium was changed, and the cells were used for test procedures one day later. Test samples were initially dissolved in sterilized PBS. Serial dilutions were performed using PBS as the solvent, and 10 μl were added to the three wells. PBS (10 μl) was added to control groups. After the plates were prepared, cells were removed from the tissue culture flasks by treatment with trypsin, enumerated, and diluted with fresh media. KB (3×10^4 cells/ml), Lu (5×10^4 cell/ml) and hTERT-RPE1 (4×10^4 cells/ml) cells (in 190 μl of media) were added to the 96-well plates. The plates were incubated at 37° C. in 5% CO2, the cells fixed by addition of 100 μl of cold 20% trichloroacetic acid and incubated at 4° C. for 30 min. The plates were washed with tap water (3×) and dried overnight. The fixed cells were stained 30 min by the addition of 100 μl of 0.4% sulforhodamine B (w/v) dissolved in 1% acetic acid. The plates were washed with 1% acetic acid (3×) and allowed to dry. The bound dye was solubilized by the addition of 10 mM unbuffered Tris base, pH 10 (200 μl/well). The plates were placed on a shaker for 5 minutes, and the absorption was determined at 515 nm using an ELISA plate reader. In each case, a zero-day control was performed by adding an equivalent number of cells to several wells of the 96-well plates and incubating at 37° C. for a period of 30 min. The cells were then fixed with tichloroacetic acid and processed as described above.
The first series of studies were conducted with the Transferrin-3-cholesterol conjugate, the Transferrin-rhodamine123 conjugate and the Transferrin-7-paclitaxel conjugate following Protocol A, in which various concentrations of test compounds ranging from 62.5-250 μg/ml were added on the day of plating, and media were replenished every 3 days, maintaining the same concentrations of the test compounds. As shown by plotting optical density versus time, the Transferrin-3-cholesterol conjugate and the Transferrin-rhodamine123 conjugate were not active with any of the cell lines (FIGS. 5, 6, 8, 9, 11, 12).
Therefore, the experiment was repeated with the Transferrin-7-paclitaxel conjugate with lower concentrations.

[4] = test system: Lu-1 (human lung cancer cell lines); assay: Cytotoxicity (sulforhodamine B growth assay), Protocol B (confluent cultures), Lu cells; details: Lu cells grown 9 days before treatment
Experimental: as §1, §2, §3

[5] = test system: hTERT (telomerase-immortalized normal epithelial cell line); assay: Cytotoxicity (sulforhodamine B growth assay), Protocol B (confluent cultures), hTERT cells; details: for effect on cell growth: hTERT cells grown 9 days before treatment
Experimental: as §1, §2, §4

[6] = test system: KB (human epidermoid carcinoma in the mouth); assay: Cytotoxicity (sulforhodamine B growth assay), Protocol B (confluent cultures), KB cells; details: KB cells grown 9 days before treatment
Experimental: as §1, §2, §3

Row | Substance | effect on cell growth (optical density versus time) [1] | effect on cell growth (optical density versus time) [2] | effect on cell growth (optical density versus time) [3] | effect on cell number (reduction relative to that at 50 μg/ml) ([4]; 0.5 μg/ml) | effect on cell number (reduction relative to that at 50 μg/ml) ([4]; 5 μg/ml) | effect on cell number ([4]; 50 μg/ml) | selectivity: cancer cells (KB and Lu) versus normal cells (hTERT) ([5]; conclusion from KB, Lu and hTERT results) | effect on cell growth ([5]; 0.5 μg/ml) | effect on cell growth ([5]; 5 μg/ml) | effect on cell growth ([5]; 50 μg/ml) | cell number on day 16 ([5]; hTERT cells, 50 μg/ml, day 16 versus day 9) | effect on cell growth ([3]; 0.5 μg/ml) | effect on cell growth ([3]; 5 μg/ml) | effect on cell growth ([3]; 50 μg/ml) | effect on cell number ([6]; 0.5 μg/ml) | effect on cell number ([6]; 5 μg/ml) | effect on cell number ([6]; 50 μg/ml)
1 | Transferrin-3-cholesterol conjugate: 3-acyl-pentanal cholesterol linked with Transferrin; non-cytotoxic molecule control conjugate | not active | not active | not active | – | – | – | – | – | – | – | – | – | – | – | – | – | –
2 | Transferrin-rhodamine123 conjugate: rhodamine123 linked to Transferrin using glutaraldehyde as a linker between free amino groups | not active | not active | not active | – | – | – | – | – | – | – | – | – | – | – | – | – | –
3 | Transferrin-7-paclitaxel conjugate: 7-acyl-pentanal paclitaxel linked to Transferrin through Schiff base; 3 paclitaxel per Transferrin | complete inhibition of cell growth | complete inhibition of cell growth | complete inhibition of cell growth | negated | diminished | significant reduction in cell number | primarily targeting cancer cells (KB and Lu) while not significantly affecting normal cells (hTERT) | Slight increases in cell growth | Slight increases in cell growth | growth was diminished | approximately the same as on day 9 | no effect on growth | complete growth inhibition | complete growth inhibition | cell number paralleled that of the control | significant reduction in cell number | significant reduction in cell number
